In ChEMBL document CHEMBL5370646, “Synthesis and Conformational Analysis of FR901464-Based RNA Splicing Modulators and Their Synergism in Drug-Resistant Cancers” (J Med Chem, 2023):

Legend:
SW48 = experiment: Growth inhibition of human SW48 cells assessed as reduction in cell viability incubated for 72 hrs; assay type: functional
A549 = experiment: Growth inhibition of human A549 cells assessed as reduction in cell viability incubated for 72 hrs; assay type: functional
DMS-53 = experiment: Growth inhibition of human DMS-53 cells assessed as reduction in cell viability incubated for 72 hrs; assay type: functional
HCT-116 [1] = experiment: Growth inhibition of human HCT-116 cells assessed as reduction in cell viability incubated for 72 hrs; assay type: functional
DMS-114 = experiment: Growth inhibition of human DMS-114 cells assessed as reduction in cell viability incubated for 72 hrs; assay type: functional
[2] = Metabolic stability in CD1 mouse plasma assessed as half life measured after 10 mins by LC-MS analysis; assay type: ADME, cell-free
[3] = Growth inhibition of human CCD-841CoN cells assessed as reduction in cell viability incubated for 72 hrs; assay type: toxicity, cell-based
[4] = Growth inhibition of mouse FL83B cells assessed as reduction in cell viability incubated for 72 hrs; assay type: toxicity, cell-based
HCT-116 [5] = experiment: Modulation of RNA splicing in human HCT-116 cells assessed as decrease in MCL-1S expression by Western blot analysis; assay type: functional, cell-based; conditions: dose 3-100 nM
HCT-116 [6] = experiment: Modulation of RNA splicing in human HCT-116 cells assessed as decrease in SF3B1 phosphorylation at thr313 residue by Western blot analysis; assay type: functional, cell-based; conditions: dose 3-100 nM
[7] = Metabolic stability in CD1 mouse plasma assessed as half life measured after 48 hrs by LC-MS analysis; assay type: ADME, cell-free
[8] = Metabolic stability in CD1 mouse plasma measured after 48 hrs by LC-MS analysis; assay type: ADME, cell-free
HCT-116 [9] = experiment: Modulation of RNA splicing in human HCT-116 cells assessed as decrease in MCL-1L expression by Western blot analysis; assay type: functional, cell-based; conditions: dose 3-100 nM
[10] = Synergistic antiproliferative activity against human Osimertinib-resistant HCC827AR cell assessed as combination index at 2.5 nM incubated for 72 hrs in presence of 1 uM osimertinib by WST-1 assay; assay type: functional
[11] = Synergistic antiproliferative activity against human Osimertinib-resistant HCC827AR cell assessed as combination index at 2.5 nM incubated for 72 hrs in presence of 4 uM osimertinib by WST-1 assay; assay type: functional
[12] = Synergistic antiproliferative activity against human Osimertinib-resistant HCC827AR cell assessed as combination index at 2.5 nM incubated for 72 hrs in presence of 2 uM osimertinib by WST-1 assay; assay type: functional
[13] = Synergistic antiproliferative activity against human Osimertinib-resistant HCC827AR cell assessed as combination index at 2.5 nM incubated for 72 hrs in presence of 0.50 uM osimertinib by WST-1 assay; assay type: functional
[14] = Synergistic antiproliferative activity against human Osimertinib-resistant HCC827AR cell assessed as combination index at 2.5 nM incubated for 72 hrs in presence of 0.25 uM osimertinib by WST-1 assay; assay type: functional

COCO[C@@H](C)/C=C\C(=O)N(C)[C@@H]1CC[C@H](C/C=C(C)/C=C/[C@H]2OC(C)(C)C[C@@]3(CO3)[C@@H]2O)O[C@@H]1C
GI50 (SW48): 16000 nM
GI50 (A549): 34000 nM
GI50 (DMS-53): 23000 nM
GI50 (HCT-116 [1]): 16000 nM
GI50 (DMS-114): 8700 nM

COCO[C@@H](C)/C=C\C(=O)N(C)[C@@H]1C[C@H](C)[C@H](C/C=C(C)/C=C/[C@H]2OC(C)(C)C[C@@]3(CO3)[C@@H]2O)O[C@@H]1C
GI50 (SW48): 4600 nM
GI50 (A549): 7500 nM
GI50 (DMS-53): 6000 nM
GI50 (HCT-116 [1]): 4100 nM
GI50 (DMS-114): 4900 nM

CC(=O)O[C@@H](C)/C=C\C(=O)N[C@@H]1C[C@H](C)[C@H](C/C=C(C)/C=C/[C@H]2OC(C)(C)C[C@@]3(CO3)[C@@H]2O)O[C@@H]1C
GI50 (SW48): 0.9 nM
half-life [2]: 1 min
GI50 (A549): 2.7 nM
GI50 (DMS-53): 0.5 nM
GI50 at 72 h [3]: 2 nM
GI50 at 72 h [4]: 0.9 nM
GI50 (HCT-116 [1]): 0.7 nM
GI50 (DMS-114): 0.4 nM

COCO[C@@H](C)/C=C\C(=O)N[C@@H]1CC[C@H](C/C=C(C)/C=C/[C@H]2OC(C)(C)C[C@@]3(CO3)[C@@H]2O)O[C@@H]1C
Activity (HCT-116 [5]): Dose-Dependent Effect
Activity (HCT-116 [6]): Dose-Dependent Effect
GI50 (SW48): 10.7 nM
GI50 (A549): 8.6 nM
half-life [7]: 8 h
Stability [8]: Stable
GI50 (DMS-53): 14.9 nM
GI50 at 72 h [3]: 63.2 nM
GI50 at 72 h [4]: 35.7 nM
GI50 (HCT-116 [1]): 10.5 nM
GI50 (DMS-114): 10.2 nM
Activity (HCT-116 [9]): Dose-Dependent Effect

Cc1c(-c2c(-c3ccc(F)o3)sc3ncnc(O[C@H](Cc4ccccc4OCc4ccnn4CC(F)(F)F)C(=O)O)c23)ccc(OCCN2CCN(C)CC2)c1Cl
CI [10]: 0.55
CI [11]: 0.42
CI [12]: 0.47
CI [13]: 0.46
CI [14]: 0.38
